The test system of one data set is Chikungunya virus. Kind of data set: Antiviral activity against Chikungunya virus 899 infected in African green monkey Vero cells assessed as inhibition of virus-induced cytopathic effect after 6 to 7 days by MTS assay. The class given is functional. To be noted: for EC50: Chikungunya virus, 899, Vero. A general note: Protection from cytopathic effect is a common read-out in antiviral testing.

Data set [1] can be described thus: Selectivity index, ratio of CC50 for African green monkey Vero cells to EC50 for Chikungunya virus 899 infected in African green monkey Vero cells. The format is toxicity. The following applies: read-out: Ratio CC50/EC50.
The nature of data set [2]: (§1) Cytotoxicity against African green monkey Vero cells assessed as reduction in metabolic activity by MTS assay. The format is ADME, cell-based. To be noted: chlorocebus sabaeus, Vero cells. Background: Tetrazolium assays rely on reduction of a dye to a coloured formazan, in cell work by metabolically active cells.
The next data set concerns Vero. Described as §1. The class given is ADME, cell-based. The following applies: chlorocebus sabaeus, vero.

The results in this text go back to ChEMBL document CHEMBL3994570, “Euphorbia dendroides Latex as a Source of Jatrophane Esters: Isolation, Structural Analysis, Conformational Study, and Anti-CHIKV Activity” (J Nat Prod, 2016).

Calls of active or inactive are those of the source. The rule behind the calls is not given here.

In the case of `C=C1[C@H](OC(=O)C(C)C)[C@@H](OC(C)=O)[C@@H](OC(C)=O)C(C)(C)/C=C/[C@H](C)C(=O)[C@@]2(O)C[C@@](C)(OC(C)=O)[C@H](OC(=O)c3ccccc3)[C@@H]2[C@H]1OC(=O)C(C)C`, the inhibition entry in the data set with Chikungunya virus was “inactive”.
On to `CC(=O)O[C@H]1[C@@H](OC(C)=O)C(C)(C)/C=C/[C@@](C)(O)C(=O)[C@@]2(O)C[C@@](C)(OC(C)=O)[C@H](OC(C)=O)[C@@H]2[C@H]2OC(=O)CC[C@@]2(OC(C)=O)[C@@H]1OC(=O)C(C)C`, for which, in the data set with Chikungunya virus, the inhibition result was “inactive”.
Take `C=C1[C@H](C(=O)C(C)C)[C@H]2[C@@H](OC(C)=O)[C@](C)(O)C[C@]2(O)C(=O)[C@@H](C)/C=C/C(C)(C)[C@H](OC(C)=O)[C@H](OC(C)=O)[C@H]1OC(=O)c1ccccc1`: the inhibition result with Chikungunya virus was “inactive”.
For `C=C1[C@H](OC(=O)C(C)C)[C@@H](OC(C)=O)[C@@H](OC(C)=O)C(C)(C)/C=C/[C@H](C)C(=O)[C@@]2(O)C[C@@](C)(OC(C)=O)[C@H](OC(=O)COC(=O)c3ccccc3)[C@@H]2[C@H]1OC(C)=O`, the selectivity ratio in data set [1] is 3.2. For the same compound, the EC50 with Chikungunya virus was 5.5 µM. Further, the CC50 in data set [2] is 17.7 µM.
In the case of `CC(=O)O[C@H]1[C@@H](OC(C)=O)C(C)(C)/C=C/[C@H](C)C(=O)[C@@]2(O)C[C@@](C)(OC(C)=O)[C@H](OC(C)=O)[C@@H]2[C@H]2OC(=O)CC[C@@]2(OC(=O)C(C)C)[C@@H]1OC(=O)C(C)C`, the selectivity ratio in data set [1] is 2.4. For the same compound, the EC50 in the data set with Chikungunya virus was 15 µM. The CC50 in data set [2] amounted to 36 µM.
With `C=C1[C@H](OC(=O)c2ccccc2)[C@@H](OC(C)=O)[C@@H](OC(C)=O)C(C)(C)/C=C/[C@H](C)C(=O)[C@@]2(O)C[C@@](C)(OC(C)=O)[C@H](OC(C)=O)[C@@H]2[C@H]1OC(=O)C(C)C`, in the data set with Chikungunya virus, the inhibition entry is “inactive”.
Take `CC(=O)O[C@H]1[C@@H](OC(C)=O)C(C)(C)/C=C/[C@@](C)(O)C(=O)[C@@]2(OC(C)=O)C[C@@](C)(OC(C)=O)[C@H](OC(C)=O)[C@@H]2[C@H]2OC(=O)CC[C@@]2(OC(C)=O)[C@@H]1OC(=O)C(C)C`: the inhibition entry in the data set on Chikungunya virus was “inactive”.
Still for that read-out and setting: the entry for `C=C1[C@H](OC(=O)c2ccccc2)[C@@H](OC(C)=O)[C@@H](OC(C)=O)C(C)(C)/C=C/[C@H](C)C(=O)[C@@]2(O)C[C@@](C)(OC(C)=O)[C@H](OC(=O)C(C)C)[C@@H]2[C@H]1OC(=O)C(C)C` is “inactive”.
With `C=C1[C@H](OC(=O)c2ccccc2)[C@@H](OC(C)=O)[C@@H](OC(C)=O)C(C)(C)/C=C/[C@H](C)C(=O)[C@@]2(O)C[C@@](C)(OC(C)=O)[C@H](O)[C@@H]2[C@H]1OC(=O)C(C)CC` (some centres not stated), in the data set on Chikungunya virus, the inhibition entry is “inactive”. Further, the Activity entry in the data set with Vero is recorded as “Non-Toxic”.
As for `C=C1[C@H](C(=O)C(C)C)[C@H]2[C@@H](OC(C)=O)[C@@H](C)C[C@]2(O)C(=O)[C@@H](C)/C=C/C(C)(C)[C@H](OC(C)=O)[C@H](OC(C)=O)[C@H]1OC(=O)c1ccccc1`, in the data set with Chikungunya virus, the inhibition result was “inactive”.
`C=C1[C@H](OC(=O)c2ccccc2)[C@@H](O)[C@@H](OC(C)=O)C(C)(C)/C=C/[C@H](C)C(=O)[C@@]2(O)C[C@@](C)(OC(C)=O)[C@H](O)[C@@H]2[C@H]1OC(=O)c1ccccc1`: the inhibition entry in the data set on Chikungunya virus is “inactive”. For the same compound, the Activity result with Vero is recorded as “Non-Toxic”.
On the same counts, the results for `C=C1[C@H](OC(=O)c2ccccc2)[C@@H](OC(C)=O)[C@@H](OC(C)=O)C(C)(C)/C=C/[C@H](C)C(=O)[C@@]2(O)C[C@@](C)(OC(C)=O)[C@H](O)[C@@H]2[C@H]1OC(=O)c1ccccc1` are “inactive” and “Non-Toxic”.
As for `C=C1[C@H](OC(=O)c2ccccc2)[C@@H](OC(C)=O)[C@@H](OC(C)=O)C(C)(C)/C=C/[C@H](C)C(=O)[C@@]2(O)C[C@@](C)(OC(C)=O)[C@H](O)[C@@H]2[C@H]1OC(=O)C(C)C`, the inhibition result in the data set on Chikungunya virus was “inactive”.
Same read-out and setting: next, `CC(=O)O[C@H]1[C@@H](OC(C)=O)C(C)(C)/C=C/[C@H](C)C(=O)[C@@]2(OC(C)=O)C[C@@](C)(OC(C)=O)[C@H](O)[C@@H]2[C@H]2OC(=O)CC[C@@]2(OC(C)=O)[C@@H]1OC(=O)C(C)C`: “inactive”; `C=C1[C@H](O)[C@H]2[C@@H](OC(=O)c3ccccc3)[C@](C)(O)C[C@]2(O)C(=O)[C@@H](C)/C=C/C(C)(C)[C@H](OC(C)=O)[C@H](OC(C)=O)[C@H]1OC(=O)c1ccccc1`: “inactive”.

For orientation: EC50 means the concentration at which the effect is half-maximal. Usually CC50 stands for the concentration giving 50% cytotoxicity.
